Molecules are shown by their SMILES. Values after ≈ are worked out from the molar mass of the structure shown.

In one data set the test system is Oncorhynchus mykiss. The conditions noted are these: acute; duration: 96 hours; mortality.
The subject of another data set is Typhlodromus pyri. The conditions noted are these: acute; duration: 7 days; mortality.
A further data set concerns Coturnix japonica. The conditions noted are these: reproduction developmental.
The next data set relates to Colinus virginianus. Conditions: acute, oral, mortality.
The subject of another data set is Apis mellifera. Conditions: acute; duration: 48 hours; oral; unspecified; mortality.
A further data set relates to Canidae. Conditions: oral, Dog Other, organ weight.
The subject of a further data set is Pimephales promelas. The conditions noted are these: chronic/long-term; duration: 35 days; growth.
The test system of a further data set is Anas platyrhynchos. Conditions: oral, mortality.
Another data set has as its system Daphnia magna. The conditions noted are these: chronic/long-term; duration: 21 days; reproduction.

On to `Clc1ccc(C2(Cn3cncn3)CC(Br)CO2)c(Cl)c1` (stereo not drawn) [Bromuconazole], for which the LC50 is 1.7 µg/mL (≈ 4.51 µM) in the data set on Oncorhynchus mykiss; above 1000 mg/kg in the data set on Tagia sp. (acute, duration: 14 days, mortality); above 778 mg/kg-day with Colinus virginianus (diet); above 684 mg/kg-day in the data set on Anas platyrhynchos (short-term, feed). Besides, the LD50 with Rattus norvegicus (acute, F, mortality) was 328 mg/kg-day; with Colinus virginianus, above 2150 mg/kg-day; with Apis mellifera it was above 100 µg/piece; in the data set on Anas platyrhynchos (acute, unspecified), above 2150 mg/kg-day. Moreover, the NOAEL is 0.88 mg/kg-day with Rattus norvegicus (chronic, duration: 2 years, oral, diet, histopathology: nonneoplastic); 10 mg/kg-day in the data set with Rattus norvegicus (developmental, development); 2.5 mg/kg-day in the data set on Canidae (chronic, duration: 1 years); 2.5 mg/kg-day in the data set with Canidae (subchronic, duration: 90 days). Besides, the NOEC is 1.3 mg/kg-day in the data set with Rattus norvegicus (reproduction developmental, reproduction); 37.2 mg/kg in the data set with Tagia sp. (chronic/long-term, duration: 56 days); 26.5 mg/kg-day in the data set with Coturnix japonica; 0.065 mg/L in the data set with Pimephales promelas; 0.02 mg/L with Daphnia magna. Further, the LEL in the data set on Typhlodromus pyri was 260 g/ha.

The record behind these values is EPA's ToxValDB 9.5 (doi:10.2903/j.efsa.2008.136r).
